Reference: publication PMC12208134, “Structure-activity relationships of 1,5-dihydro-2H-benzo[b][1,4]diazepine-2,4(3H)-diones as inhibitors of Trypanosoma cruzi” (RSC medicinal chemistry, 2025)
In brackets after ≈: the same amount, converted by molar mass. Several values for one entry are separate records, joined by “and”; a condition that tells them apart may be missing. Equal entries are not always repeated. Where two headings read alike, the source gives them in different places.

Key:
[1] = tested on: intracellular T. cruzi amastigotes; experiment: T. cruzi intracellular potency assay (high content imaging); type: cell-based, Trypanosoma cruzi; parameters: key to Max Effect (T. cruzi): % inhibition; 0% = DMSO control, 100% = 16 μM nifurtimox control; details: for IC50 / EC50 / Emax: Trypanosoma cruzi; for IC50: read-out: T. cruzi pIC50 (converted); for Hill slope (T. cruzi) / Max Effect (T. cruzi) / pEC50 (T. cruzi) / EC50 / Emax: individual replicate; for EC50: read-out: pEC50 (T. cruzi) (converted); for Emax: read-out: Max Effect (T. cruzi)
Method: (§1) T. cruzi intracellular potency and rate-of-kill assay (high content imaging) ^1
(§2) Silvio X10/7 T. cruzi trypomastigotes were incubated at 37°C 5% CO2 with 1.6×10^7 Vero cells overnight at MOI10 in MEM media supplemented with 10% foetal calf serum (FCS). Extracellular parasites were removed by aspirating cell culture supernatant, and washing Vero monolayer with 10 ml serum-free MEM three times. Vero cells were then harvested by trypsinization and dispensed at 2×10^3 per well (50 μl in MEM/ 1% FCS) into 384 well plates pre-stamped with compounds in DMSO using automated washer/ dispenser EL406 and liquid handling software (Biotek). Plates were then incubated at 37°C in 5% CO2 for 96 h. For rate-of-kill determination, plates were incubated for 24h, 48h, 72h and 96h.
(§3) Plates were subsequently fixed with 4% formaldehyde for 20 min, permeabilised and stained with 5 μgml^-1 Hoechst 33342/ 0.1% Triton/ PBS Thimerosal 20 min. Automated imaging was performed by an Operetta high content imaging system using 20x objective (PerkinElmer). Images were analysed with an algorithm generated in Columbus (PerkinElmer) to segment Vero cell nuclei, Vero cell cytoplasm and parasite nuclei/ kinetoplasts, reporting number of amastigotes per Vero cell, percent infected Vero cells and total number of Vero cells. Compound potencies against T. cruzi parasites were calculated in IDBS Activitybase using percent infected Vero cells and Vero toxicity curves generated using number of host cells. All data was normalised to percent inhibition based on the raw data values for the 100% effect control (16 μM nifurtimox) and the 0% effect control (DMSO) on each plate at each time point. Curve fitting was carried out using a four-parameter equation as previously described. ^2 For rate-of-kill experiments the percent infected cells at each compound concentration was plotted against time.

host Vero cell = experiment: Vero host cell toxicity in the intracellular T. cruzi assay; type: cell-based; parameters: key to Max Effect (Vero): % inhibition; 0% = DMSO control, 100% = 16 μM nifurtimox control; details: for EC50 / IC50: Chlorocebus sabaeus; for EC50: Vero; for EC50 / Hill Slope (Vero) / Max Effect (Vero) / pEC50 (Vero): individual replicate; for IC50: read-out: Vero pIC50 (converted)
Method: as §1, §2, §3

[2] = Kinetic aqueous solubility by CAD; type: physicochemical
[3] = Mouse liver microsomal intrinsic clearance; type: in vitro ADME
[4] = Human liver microsomal intrinsic clearance; type: in vitro ADME
[5] = ChromLogD pH7.4 (chromatographic hydrophobicity index), PFI, LLE; details: for PFI: ChromLogDpH7.4 + no. aromatic rings
From the text: [23] Alongside PFI, LLE (ligand lipophilic efficiency, T. cruzi pIC50 - ChromLogDpH7.4) was also monitored to identify changes where the impact on potency was not driven by increasing lipophilicity.

[6] = intracellular amastigotes in Vero cells, 96 h, mean of N ≥ 3
[7] = kinetic from dmso stock, kinetic, CAD, read-out: Aqueous solubility

| Molecule | IC50 [1, 6] | Hill slope (T. cruzi) [1] | Max Effect (T. cruzi) [1] | pEC50 (T. cruzi) [1] | EC50 (host Vero cell) | IC50 (host Vero cell; host Vero cell) | Max Effect (Vero) (host Vero cell) | pEC50 (Vero) (host Vero cell) | solubility [2, 7] | MLM CLi ([3]; mouse liver microsomes) | HLM CLi ([4]; human liver microsomes) | PFI [5] | chromatographic logD ([5]; pH 7.4) | EC50 [1] | solubility ([2]; kinetic from dmso stock) | MLM CLi ([3]; mouse, microsomes) | HLM CLi ([4]; human, microsomes) | Emax [1] | also measured |
| --- | --- | --- | --- | --- | --- | --- | --- | --- | --- | --- | --- | --- | --- | --- | --- | --- | --- | --- | --- |
| Cc1ccc(NC(=O)NC2COc3ccccc3N(c3ccccc3)C2=O)cc1 (centres unmarked) [Compound 13, 1-(4-oxo-5-phenyl-2,3,4,5-tetrahydrobenzo[b][1,4]oxazepin-3-yl)-3-(p-tolyl)urea] | 25.1 µM | 2.6 and 8.4 and 3.4 and 2.9 and 1.5 | 84 and 89 and 94 and 80 and 46 | 4.6 and 4.8 and 4.7 and 4.5 and < 4.3 | 39.8 µM | 50.1 µM | 80 and 67 and 70 and 76 and 15 and 5.57 | 4.3 and < 4.3 | 27 µM (≈ 10.5 µg/mL) | 4.9 mL/min/g | <0.4 mL/min/g | 9.1 | 6.1 | – | – | – | – | – | Hill Slope (Vero) (host Vero cell): 12.0 and 13.9 and 15.1 and 6.4 |
| Cc1ccc(NC(=O)NC2C(=O)Nc3ccccc3N(C(C)C)C2=O)cc1 (centres unmarked) [Compound 7, 1-(1-isopropyl-2,4-dioxo-2,3,4,5-tetrahydro-1H-benzo[b][1,4]diazepin-3-yl)-3-(p-tolyl)urea] | 12.6 µM | 2.0 and 0.8 and 3.3 and 2.1 | 86 and 58 and 83 and 89 | 4.9 and 5.0 | > 50.1 µM | > 50.1 µM | 25 and 30 and 20 and -11 | – | 25 µM (≈ 9.16 µg/mL) | 1.8 mL/min/g | <0.4 mL/min/g | 6.2 | 4.2 | 20 µM | – | – | – | – | – |
| CC(C)N(C(=O)CN1C(=O)C(N)C(=O)N(c2ccccc2)c2ccccc21)c1ccccc1 (single isomer, unassigned) [14-Ent 2, 2-(3-amino-2,4-dioxo-5-phenyl-2,3,4,5-tetrahydro-1H-benzo[b][1,4]diazepin-1-yl)-N-isopropyl-N-phenylacetamide] | – | 85.9 and 4.0 | 82 | 6.7 and 6.6 | – | – | 5.45 and 20 | < 4.3 | – | – | – | – | – | – | – | – | – | – | – |
| COc1ccc(CN2C(=O)CC(=O)N(c3ccc(OC)cc3)c3ccccc32)cc1 [Compound 23, 1-(4-methoxybenzyl)-5-(4-methoxyphenyl)-1,5-dihydro-2H-benzo[b][1,4]diazepine-2,4(3H)-dione] | > 50.1 µM | – | 39 and 11 and 27 and 29 | – | > 50.1 µM | > 50.1 µM | 2.11 and 2.25 and 31 and 32 | – | – | – | – | 8.1 | 5.1 | > 50.1 µM | 175 µM (≈ 70.4 µg/mL) | 80 mL/min/g | >37 mL/min/g | – | – |
| Cc1ccc(NC(=O)NC2CNc3ccccc3N(c3ccccc3)C2=O)cc1 (centres unmarked) [Compound 11, 1-(2-oxo-1-phenyl-2,3,4,5-tetrahydro-1H-benzo[b][1,4]diazepin-3-yl)-3-(p-tolyl)urea] | 25.1 µM | 1.3 and 2.0 and 1.7 and 2.2 | 77 and 75 and 73 | 4.7 | > 50.1 µM | > 50.1 µM | 20 and 21 and 9 and 10 | – | < 1 µM | 4.0 mL/min/g | <0.4 mL/min/g | 8.4 | 5.4 | 25.1 µM | – | – | – | 67% | – |
| COc1ccc(CN2C(=O)C(N)C(=O)N(c3ccccc3)c3c(F)cccc32)cc1 (centres unmarked) [Compound 21, 3-amino-6-fluoro-1-(4-methoxybenzyl)-5-phenyl-1,5-dihydro-2H-benzo[b][1,4]diazepine-2,4(3H)-dione] | 1.26 µM | 13.4 and 21.5 and 12.3 and 1.4 and 2.3 and 17.2 | 88 and 90 and 85 | 5.8 and 6.3 and 5.7 | > 50.1 µM | > 50.1 µM | -0.364 and 17 and 0.947 and 18 and 21 and 12 | – | – | – | – | 7.3 | 4.3 | – | > 217 µM | 9.0 mL/min/g | <0.4 mL/min/g | 81% | – |
| COc1ccccc1N1C(=O)C(NC(=O)Nc2ccc(C)cc2)C(=O)Nc2ccccc21 (centres unmarked) [Compound 6, 1-(1-(2-methoxyphenyl)-2,4-dioxo-2,3,4,5-tetrahydro-1H-benzo[b][1,4]diazepin-3-yl)-3-(p-tolyl)urea] | 31.6 µM | 2.9 and 3.1 and 3.8 and 11.3 | 81 and 90 and 77 | 4.6 and 4.3 | > 50.1 µM | > 50.1 µM | 38 and 21 and 11 and 12 | – | – | – | – | 7.7 | 4.7 | 31.6 µM | 129 µM (≈ 55.5 µg/mL) | 2.1 mL/min/g | <0.4 mL/min/g | 79% | – |
| Cc1ccc(NC(=O)NC2C(=O)Nc3ccccc3N(C3CCOCC3)C2=O)cc1 (centres unmarked) [Compound 8, 1-(2,4-dioxo-1-(tetrahydro-2H-pyran-4-yl)-2,3,4,5-tetrahydro-1H-benzo[b][1,4]diazepin-3-yl)-3-(p-tolyl)urea] | 12.6 µM | 2.6 and 1.3 and 1.9 | 78 and 81 | 4.9 and 4.8 | > 50.1 µM | > 50.1 µM | 17 and 36 and -0.637 and 18 | – | 380 µM (≈ 155 µg/mL) | 0.7 mL/min/g | <0.4 mL/min/g | 5.5 | 3.5 | 10 µM | – | – | – | 73% | – |
| O=C(Nc1ccc(F)cc1)NC1C(=O)Nc2ccccc2N(c2ccccc2)C1=O (centres unmarked) [Compound 3, 1-(2,4-dioxo-1-phenyl-2,3,4,5-tetrahydro-1H-benzo[b][1,4]diazepin-3-yl)-3-(4-fluorophenyl)urea] | 10 µM | 2.0 and 0.8 and 2.1 and 1.3 | 92 and 95 and 83 | 5.1 and 4.8 | > 50.1 µM | > 50.1 µM | -12 and 14 and 22 and 36 | – | – | – | – | 7.4 | 4.4 | 12.6 µM | 26 µM (≈ 10.5 µg/mL) | 0.6 mL/min/g | <0.4 mL/min/g | 90% | – |
| CC(C)N(C(=O)CN1C(=O)C(N)C(=O)N(c2ccccc2)c2ccccc21)c1ccccc1 (single isomer, unassigned) [14-Ent 1, 2-(3-amino-2,4-dioxo-5-phenyl-2,3,4,5-tetrahydro-1H-benzo[b][1,4]diazepin-1-yl)-N-isopropyl-N-phenylacetamide] | – | 3.1 and 5.7 | 88 | 6.4 | > 50.1 µM | – | 27 and 35 | < 4.3 | – | – | – | – | – | 0.316 µM | – | – | – | 94% | – |
| Cc1ccc(NC(=O)NC2CN(c3ccccc3)c3ccccc3NC2=O)cc1 (centres unmarked) [Compound 10, 1-(4-oxo-1-phenyl-2,3,4,5-tetrahydro-1H-benzo[b][1,4]diazepin-3-yl)-3-(p-tolyl)urea] | 7.94 µM | 3.5 and 12.0 and 3.2 and 0.8 | 83 and 85 | 5.0 and 4.9 and 5.3 | – | 12.6 µM | 96 and 91 and 95 and 63 | 4.7 and 5.2 and 4.6 and 5.3 | 23 µM (≈ 8.89 µg/mL) | 3.5 mL/min/g | <0.4 mL/min/g | 8.7 | 5.7 | – | – | – | – | 86% | Hill Slope (Vero) (host Vero cell): 3.6 and 42.2 and 4.8 and 14.3 |
| 3-amino-6-fluoro-1-(4-methoxybenzyl)-5-(4-methoxyphenyl)-1,5-dihydro-2H-benzo[b][1,4]diazepine-2,4(3H)-dione [Compound 22] | – | 11.8 and 10.3 and 3.4 and 21.3 | 77 and 98 and 83 and 82 | 7.2 | – | – | 3.52 and 24 and 2 and 12 | < 4.3 | – | 2.2 mL/min/g | <0.4 mL/min/g | 7.2 | – | – | – | – | – | – | T. cruzi pIC50 [1, 6]: 7.2 ± 0.0; Vero pIC50 (host Vero cell; host Vero cell): <4.3; solubility ([2]; kinetic, CAD, read-out: Aqueous solubility): 168 µM; Chrom LogDpH7.4 ([5]; pH 7.4): 4.2 |
